The values that follow come from paper PMC12445440 (Journal of Medical Virology, 2025).

For data set [1], the system named is BVDV. As to conditions: previously published data; Na = no detected antiviral activity; ref [18]-[22] of main text, [3] of supplement for PS1086, PS1100, PS1101; cited from earlier work.
Data set [2] deals with Vero76. Details: method as in earlier work. The conditions noted are these: previously published data; ref [18]-[22] of main text, [3] of supplement for PS1086, PS1100, PS1101; cited from earlier work.
Data set [3] in a line: Cytotoxicity by WST-8, uninfected Huh-7 cells. As to conditions: human. On the technique in general: Tetrazolium assays rely on reduction of a dye to a coloured formazan, in cell work by metabolically active cells.
Data set [4] relates to ZIKV^Br. The data set is described as follows: Virus yield reduction assay, ZIKV^Br on Huh-7 cells. It counts as cell-based, Zika virus.
For data set [5], the system named is Huh-7 cells. The data set is described as follows: Cytotoxicity by WST-8, uninfected Huh-7 cells. As to conditions: read-out: CC50 Huh-7; Table S2, this paper data.
Data set [6] concerns ZIKV NS5. The data set is described as follows: ZIKV protein synthesis by western blot (NS5), Huh-7 cells. The format is cell-based, Zika virus. As to conditions: MOI 1, 1x, 5x, 10x EC50 (PS1097 0.6, 3, 6 μM; SOF 1.5, 7.5, 15 μM), 48 h. On the procedure: (§1) Immunoblotting was performed as described.
(§2) Viral protein levels in cell lysates were analyzed by immunoblotting (Figure 3A,B), while virion release was assessed by quantifying ZIKV RNA in supernatants (Figure 3C).
(§3) Impact of treatment on ZIKV protein synthesis was evaluated on cell extracts analyzed by western blot using anti‐ ZIKV NS5, or anti‐GAPDH as a housekeeping control.

The subject of data set [7] is ZIKV NS5. The data set is described as follows: ZIKV protein synthesis by western blot (NS5), Vero E6 cells. As to conditions: MOI 1, 1x, 5x, 10x EC50, 48 h. It counts as cell-based, Zika virus. As to the method: as §1, §2, §3
On the technique in general: A western blot detects proteins with antibodies after separation by electrophoresis.

Data set [8] deals with ZIKV^Br. The data set is described as follows: Time-of-addition (TOA) experiments, ZIKV^Br in Huh-7 cells. The format is cell-based, Zika virus. As to conditions: Huh-7, ZIKV^Br MOI 1, 10x EC50 (PS1097 6 μM, SOF 15 μM), harvest 48 h p.i. On the procedure: PS1097 was added at 6 μM at 0, 2, 6, 12, 24, and 36 h p.i. SOF was used as a reference compound at 15 μM. At 48 h p.i., viral proteins were determined by western blot or by qRT‐PCR in cell lysates.
To elucidate the mechanism of PS1097 antiviral action, TOA experiments were conducted (Figure 4A). ZIKV^Br replication kinetics was assessed by quantifying viral genomic RNA and protein inside Huh‐7 cells at the times p.i. shown in Figure 4A. Viral RNA was detectable as of ~12 h p.i. (Figure 4D), whereas viral protein was visible after 24 h p.i. (Figure 4B,C). In parallel, cells were exposed to viral inoculum for 2 h. […] Then, they were harvested at 48 h p.i. Viral RNA in cells was measured by qRT‐PCR and inhibition relative to DMSO‐treated cells was calculated, as described by (Figure 4G).
Figure 4 (A) Experimental design of the Time Of Addition (TOA) assay for PS1097 and SOF. (B) ZIKV replication kinetics was determined on Huh‐7 cells infected at MOI 1for 2 h by western blot cell lysates prepared at the times shown. ZIKV NS5 and GAPDH were monitored with the antibodies in Supporting Information: Table S1. (C) Quantitative analysis of the results in B). (D) qRT‐PCR quantification of ZIKV RNA was carried out in ZIKV‐infected cells lysed at the times indicated on the x axis. (E) western blot of lysates of Huh‐7 cells harvested at 48 h p.i. where treatment with PS1097 or SOF was started as by A). (F) Quantitative analysis of the results in E). (G) ZIKV RNA was quantified in lysates of cells harvested at 48 h p.i. where treatment with PS1097 (red line) or SOF (green line) was started at the times p.i. indicated on the x axis. (H) Combined antiviral activity of PS1097 with SOF against ZIKV. Huh‐7 cells were infected with ZIKV then treated with PS1097 or SOF, alone or in combination, at the indicated concentrations. After 48 h p.i., supernatants were harvested and titrated for ZIKV yield. Two‐dimensional representation of dose–response interaction matrix was determined in synergyfinder.org. Color gradient indicates viral yield inhibition score (red‐highest score). […]

Setting [9] is: Zika virus, Huh-7, 48 h, ZIKV^Br on Huh-7 cells, viral yield reduction, 48 h, 95% confidence interval in brackets.
Setting [10] is: Zika virus, Huh-7, read-out: EC50 ZIKV, Table S2, this paper data, Huh-7 cells, Na = no detected antiviral activity.

Read-outs that look alike come from different tables or passages of the source.

With `CC(C)c1nc2cc3cccnc3c(Cl)c2[nH]c1=O` [PS462], the EC50 (in general, the concentration at which the effect is half-maximal) in data set [1] is 5 µM; in data set [4] (setting [9]), above 100 µM; in data set [4] (setting [10]) it was 100 µM. For the same compound, the CC50 in data set [2] was above 100 µM. The compound also gave a CC50 at 48 h in data set [3] of 294 µM.
`O=c1nc(NO)ccn1[C@@H]1O[C@H](CO)[C@@H](O)[C@H]1O` [EIDD-1931, β‐D‐N4‐hydroxycytidine, reference compound]: the CC50 in data set [5] came out at 148 µM. Moreover, in data set [4] (Table S2, this paper data, Huh-7 cells, Na = no detected antiviral activity, read-out: EC50 ZIKV), the concentration for a half-maximal effect (EC50) was found to be 1.7 µM.
On to `NC(=O)c1ncn([C@@H]2O[C@H](CO)[C@@H](O)[C@H]2O)n1` [RBV, 1‐(b‐D‐ribofuranosyl)‐1H‐1,2,4‐triazole‐3‐carboxamide, reference compound], for which, in data set [3], the CC50 at 48 h is 144 µM. Further, in data set [4] (Zika virus, ZIKV^Br on Huh-7 cells, viral yield reduction, 48 h, 95% confidence interval in brackets, read-out: EC50), the EC50 worked out at 8.8 µM.
In the case of `Cn1c(=O)c(-c2cccs2)nc2c(Cl)c3ncccc3cc21` [PS1240], the values for the EC50 in data set [1] and in data set [4] (setting [9]) were 2 µM and 2.06 µM, respectively. The CC50 in data set [2] is above 100 µM. The same compound showed a CC50 at 48 h in data set [3] of 293 µM.
As to `CC(C)OC(=O)[C@H](C)N[P@](=O)(OC[C@H]1O[C@@H](n2ccc(=O)[nH]c2=O)[C@](C)(F)[C@@H]1O)Oc1ccccc1` [SOF, Sofosbuvir, reference compound], the “ZIKV protein expression (NS5, western blot)” value in data set [6] is on record as “completely abolished protein synthesis”. Moreover, in data set [7], the “ZIKV protein content (NS5, western blot)” value is given as “no effect on viral protein content”. Further, the “Time of addition giving the strongest inhibition” value in data set [8] is reported as 0–6 h p.i. In addition, the CC50 at 48 h in data set [3] worked out at 282 µM. Moreover, the EC50 turned out to be 1.5 µM in data set [4] (setting [9]) and 1.53 µM in data set [4] (setting [10]).
